Measured values reported in US20030187056A1, “Live cell procedures to identify to identify compounds modulating intracellular distribution of phosphodiesterase( pde) enzymes” (priority 2000, published 2003).
pIC50: −log10 of the molar value. Where “and” joins values, the source holds several entries; their conditions need not be identical. Identical values can stand only once. Entries after “also recorded” stand apart in the source; their conditions may differ. Like-named read-outs stand apart in the source and are kept apart here.

Key:
[1] = test system: high affinity Rolipram binding site (HARBS); conditions: Data from Souness and Rao, 1997; cited from earlier work
[2] = molecular target: T1, high affinity Rolipram binding site (HARBS); conditions: read-out: Displacement of [3H] Rolipram (i: μM); Data from Souness and Rao, 1997; cited from earlier work
T1 construct: Displacement of [3H]; Rolipram (i: μM); other: Data from Souness and Rao, 1997

HSPDE4A4-EGFP [3] = molecular target: T2, HSPDE4A4-EGFP (Homo sapiens, UniProt P27815); experiment: Dispersal of preformed Rolipram-induced spots, HSPDE4A4-EGFP CHO cells; format: cell-based; conditions: for Removal of Rolipram-induced PDE4A4-spots: yes/no
T2 construct: expressed in transfected cells
Protocol: For the microscopic assessment of spot dispersal, stably transfected (non-clonal) cells transfected with the HSPDE4A4-EGFP probe are allowed to adhere to chambered coverglasses in HAM's F12 medium containing 10% FBS. […] Chambered coverglasses are then transferred to a Zeiss 135 inverted microscope for time lapse imaging as described in Example 2, above. At a given point after starting an experiment, a mixture of IBMX and forskolin is added to give final concentrations of 1 mM and 50 μM, respectively. Images are captured at regular intervals to form a time lapse sequence of the response, also as described in Example 2.
The plate is then run in the FLIPR system at 37° C., with addition of IBMX and forskolin to all wells at final concentrations of 500 μM and 50 μM respectively after the first minute. The experiment is continued for a further 45 minutes, readings being taken at intervals of 1 minute.
Non-clonal CHO cells stably transfected with the HSPDE4A4-EGFP probe are allowed to adhere to chambered coverglasses in HAM's F12 medium containing 10% FBS and to grow for 24 hours.
Clonal CHO cells stably transfected with the HSPDE4A4-EGFP probe are allowed to adhere to chambered coverglasses in HAM's F12 medium containing 10% FBS and to grow for 5 days without change of medium, which by this time is serum-depleted.
Individual wells are then treated with either 50 μM forskolin plus 500 μM IBMX or 200 nM PMA plus 2 μM ionomycin.

PDE4A probes = experiment: Redistribution of the PDE4A probes (summary); format: cell-based; conditions: for redistribution of the PDE4A probes: compound alone
HSPDE4A1-EGFP [4] = molecular target: T3, HSPDE4A1-EGFP (Homo sapiens, UniProt P27815); experiment: Competitive assay: reversal of Rolipram-induced spot dispersal, HSPDE4A1-EGFP CHO cells; format: cell-based; conditions: yes/no
T3 construct: the ca. 1.95 kb coding region of HSPDE4A1 (GenBank Acc.no. U97584) is amplified; expressed in transfected cells

HSPDE4A1-EGFP [5] = molecular target: T3, HSPDE4A1-EGFP; experiment: Spot dispersal in CHO cells transfected with HSPDE4A1-EGFP; format: cell-based; conditions: for Removal of PDE4A1 spots: yes/no; for dispersal of PDE4A1 spots (in words): Rolipram 2 micromolar 2 hours, others over the ranges tested
Protocol: (§1) […] The cells are then fixed with 4% formalin buffer (pH7) for 1 hour, washed with PBS and stained with 1 μM Hoechst 33258 in PBS for 10 minutes at 25° C., then washed twice in PBS. Automated images are collected and analysed for the number of spots per cell as described in Example 2.
as §1

HSPDE4A4-EGFP [6] = molecular target: T2, HSPDE4A4-EGFP; experiment: Spot formation in CHO cells transfected with HSPDE4A4-EGFP; format: cell-based; conditions: for cells with spots: 10 μM denbufylline, 24.5 hours; for Formation of PDE4A4 spots: yes/no; for formation of spots, compound alone (in words): observed up to 24 hours
Protocol: Chinese hamster ovary cells (CHO), are transfected with the plasmids described in Example 1 above using the transfection agent FuGENE™ 6 (Boehringer Mannheim Corp, USA) according to the method recommended by the suppliers. Stable transfectants are selected using 1 mg/ml G418 sulphate (Calbiochem) in the growth medium (HAM's F12 nutrient mix with Glutamax-1, 10% foetal bovine serum (FBS), 100 μg penicillin-streptomycin mixture ml^−1 (GibcoBRL, supplied by Life Technologies, Denmark). Cell are cultured at 37° C. in 100% humidity and conditions of normal atmospheric gases supplemented with 5% CO2.
For fluorescence microscopy, cells are allowed to adhere to Lab-Tek chambered coverglasses (Nalge Nunc International, Naperville USA) for at least 24 hours and are then cultured to about 80% confluence. Cells can also be grown in plastic 96-well plates (Polyfiltronics Packard 96-View Plate or Costar Black Plate, clear bottom; both types tissue culture treated) for imaging purposes. Prior to experiments, the cells are cultured over night without G418 sulphate in HAM F-12 medium with glutamax, 100 μg penicillin-streptomycin mixture ml^−1 and 10% FBS. This medium has low autofluorescence enabling fluorescence microscopy of cells straight from the incubator. For certain tests requiring medium of defined composition, particularly with regard to the presence of specific cell growth factors, the HAM's culture medium is replaced prior to imaging with a buffered saline solution (KRW buffer) containing (in mM) 3.6 KCl, 140 NaCl, 2 NaHCO3, 0.5 NaH2PO4, 0.5 MgSO4, 1.5 CaCl2, 10 Hepes, 5 glucose, pH7.4.
Changes in cellular distribution of a transfected probe can be imaged and quantified in an automated fashion. For this purpose cells are cultured to near 80% to 90% confluence in coverglass chambers or plastic 96-well plates, given the relevant treatment and allowed to respond. At the end of the response period, cells are fixed in 4% formaldehyde buffer (Lillies fixative buffer, pH7.0: Bie and Berntsen A/S, Denmark) for 30 minutes to 2 hours, then washed in phosphate buffered saline (PBS, Life Technologies, Denmark). Nuclear DNA is stained with 1 μM Hoechst 33258 (Molecular Probes, Eugene, Oreg., USA) in PBS for 10 minutes at 25° C., then washed twice in PBS. Automated images are collected on a Nikon Diaphot 300 (Nikon, Japan) using a Nikon Plan Fluor 20X/0.5NA objective lens. The basic microscope is fitted with a motorised specimen stage and motorised focus control (Prior Scientific, Fulbourn, Cambridge UK), excitation filter wheel (Sutter Instruments, Novato Calif. USA) and Photometrics PXL series camera with a KAF1400 CCD chip (Photometrics, Tucson, Ariz. USA), each of these items being under the control of an Macintosh 7200/90 computer (Apple Computer, Cupertino, Calif. USA). Automation of stage positioning, focus, excitation filter selection, and image acquisition is performed using macros written in-house, running under IPLab Spectrum for Macintosh (Scanalytics, Fairfax, Va. USA). Fluorescence illumination comes from a 100 W HBO lamp. Images are collected in pairs, the first using a 340/10 nm excitation filter, the second with a 475RDF40 excitation filter (Chroma, Brattleboro, Vt.). Both images are collected via the same dichroic and emission filters, which are optimised for EGFP applications (XF100 filter set, Omega Optical, Brattleboro, Vt.). While the choice of filters for imaging the nuclear stain (Hoechst 33258) is not well matched to that dye's spectral properties, resulting in lower image intensity, it greatly improves the throughput of the procedure by allowing both images to be collected using the same dichroic and emission filter. This eliminates any image registration problems and focus shifts which would result from using two different filter sets, which would require more steps in the acquisition procedure and more extensive image processing to overcome.

[7] = human, in vivo; cited from earlier work
PDE4 [8] = conditions: cited from earlier work; for IC50: Data from Souness and Rao, 1997, read-out: PDE4 inhibition (IC50: μM); for pIC50: literature values quoted in Example 5 (Saldou 1998; Ahluwalia 1982; Rubin 1991), read-out: IC50 against PDE4; for Inhibition of PDE4 catalytic activity: yes/no
[9] = test system: cAMP-dependent protein kinases (PKA); conditions: cited from earlier work
HSPDE4A4-EGFP [10] = molecular target: T2, HSPDE4A4-EGFP; experiment: Competitive spot assay: inhibition of Rolipram- or RS25344-induced spot formation, HSPDE4A4-EGFP CHO cells; format: cell-based
Protocol: (§2) The cells are then fixed with 4% formaldehyde buffer (pH7) for 1 hour, washed with PBS and stained with 1 μM Hoechst 33258 in PBS for 10 minutes at 25° C., then washed twice in PBS. Automated images are collected and analysed for the number of spots per cell as described in Example 2.
as §2

PDE4 [11] = test system: T4, PDE4; conditions: Saldou et al., 1998; read-out: IC50 against PDE4; cited from earlier work
T4 construct: other: Saldou et al., 1998; Such an enzyme preparation may be obtained from cells transfected with and expressing the PDE4 enzyme chosen

PDE3 [12] = experiment: PDE3 inhibition (literature values, PDE3/PDE4 specificity); format: biochemical; conditions: measure of specificity
Description: These compounds are termed specific to PDE4, since they inhibit other PDEs either weakly or not at all. The inverse ratio between IC50 of a compound to PDE4s versus its inhibition of other cAMP-degrading PDEs, such as PDE3s is often used as a measure of specificity.

PDE3 [13] = conditions: cited from earlier work
HSPDE4A4-EGFP [14] = experiment: Formation of small spots in serum-depleted Rolipram-treated HSPDE4A4-EGFP CHO cells; format: cell-based, Homo sapiens; conditions: 1 or 2 μM ionomycin, KRW buffer with 2 μM Rolipram
Protocol: Clonal CHO cells stably transfected with the HSPDE4A4-EGFP probe are allowed to adhere to chambered coverglasses in HAM's F12 medium containing 10% FBS and to grow for 4 days without change of medium. […] At the end of this time approximately 95% of the cells contain bright spots when viewed on a fluorescence microscope.
Individual wells are then treated first with 1 or 2 μM ionomycin, and then a short time later with 50 μM forskolin plus 500 μM IBMX. Within 1 minute of treatment with ionomycin, at either 1 or 2 μM, small spots form in the cytoplasm of the cells (FIGS. 32a and 32b). This occurs in nearly all cells, whether they contain large Rolipram-induced spots or not. Large spots are not affected in any way during the formation of the smaller spots. The small spots will spontaneously disappear within 10 to 20 minutes. Application of forskolin plus IBMX clears them within minutes (FIG. 33a). The larger spots also disperse in time with this treatment, but more slowly (FIG. 33b). The formation of small spots will not occur in serum-replete cells, or in starved cells that then have been given 10% serum for more than 45 minutes. […] The time course of transient appearance of the small spots of the HSPDE4A4-EGFP probe is consistent with that of the Ca^2+ transient generally elicited by ionomycin in treated cells.

T3 sequence (P27815 1-647 isoform P27815-4): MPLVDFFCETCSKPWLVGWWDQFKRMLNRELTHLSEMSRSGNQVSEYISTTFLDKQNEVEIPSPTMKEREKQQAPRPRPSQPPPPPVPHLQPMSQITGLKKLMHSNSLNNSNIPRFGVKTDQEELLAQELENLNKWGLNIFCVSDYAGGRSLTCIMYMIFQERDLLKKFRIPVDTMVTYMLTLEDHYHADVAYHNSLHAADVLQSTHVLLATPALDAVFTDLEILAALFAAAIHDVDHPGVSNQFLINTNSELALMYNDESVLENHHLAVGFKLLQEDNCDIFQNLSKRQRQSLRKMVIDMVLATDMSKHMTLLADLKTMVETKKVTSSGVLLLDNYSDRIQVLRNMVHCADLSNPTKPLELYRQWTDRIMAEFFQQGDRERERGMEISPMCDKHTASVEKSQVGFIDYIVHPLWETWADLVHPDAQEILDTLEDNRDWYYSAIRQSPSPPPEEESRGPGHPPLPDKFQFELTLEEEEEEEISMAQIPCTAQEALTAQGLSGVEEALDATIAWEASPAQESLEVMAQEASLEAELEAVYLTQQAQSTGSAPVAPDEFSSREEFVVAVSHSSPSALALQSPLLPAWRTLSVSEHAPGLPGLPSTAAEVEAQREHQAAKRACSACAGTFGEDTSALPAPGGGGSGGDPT
T2 sequence (P27815 whole entry): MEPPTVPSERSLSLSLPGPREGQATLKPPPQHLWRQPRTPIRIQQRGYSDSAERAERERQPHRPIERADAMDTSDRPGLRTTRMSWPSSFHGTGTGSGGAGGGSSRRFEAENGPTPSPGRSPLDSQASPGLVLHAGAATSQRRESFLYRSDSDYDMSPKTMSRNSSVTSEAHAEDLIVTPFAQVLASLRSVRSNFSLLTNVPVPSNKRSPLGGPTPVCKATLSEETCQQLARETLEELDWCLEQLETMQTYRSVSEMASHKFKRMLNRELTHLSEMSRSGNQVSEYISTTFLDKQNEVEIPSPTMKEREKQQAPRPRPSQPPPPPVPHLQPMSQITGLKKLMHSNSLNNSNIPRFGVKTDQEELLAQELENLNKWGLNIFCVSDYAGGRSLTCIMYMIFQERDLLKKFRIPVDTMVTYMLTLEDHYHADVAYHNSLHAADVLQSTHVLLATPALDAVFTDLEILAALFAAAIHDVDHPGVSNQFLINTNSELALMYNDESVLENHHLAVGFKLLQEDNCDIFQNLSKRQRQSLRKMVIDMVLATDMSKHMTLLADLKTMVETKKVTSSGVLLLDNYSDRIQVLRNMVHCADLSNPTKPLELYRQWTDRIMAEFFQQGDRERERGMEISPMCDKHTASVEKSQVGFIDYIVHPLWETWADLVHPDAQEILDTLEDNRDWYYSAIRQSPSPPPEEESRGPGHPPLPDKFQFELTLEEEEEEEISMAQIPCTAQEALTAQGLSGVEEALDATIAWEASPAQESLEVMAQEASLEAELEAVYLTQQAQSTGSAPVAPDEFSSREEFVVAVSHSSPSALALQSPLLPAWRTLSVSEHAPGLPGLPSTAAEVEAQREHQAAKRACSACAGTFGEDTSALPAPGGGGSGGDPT

| Compound | PDE4/HARBS, ratio (IC50 PDE4)/(Ki for HARBS) [1] | Ki [2] | Removal of Rolipram-induced PDE4A4-spots (HSPDE4A4-EGFP [3]) | redistribution of the PDE4A probes (PDE4A probes) | Reversal of Rolipram-induced removal of PDE4A1 spots (HSPDE4A1-EGFP [4]) | Removal of PDE4A1 spots (HSPDE4A1-EGFP [5]) | Formation of PDE4A4 spots (HSPDE4A4-EGFP [6]) | Clinical effect [7] | Emesis [7] | IC50 (PDE4 [8]) | pIC50 (PDE4 [8]) | Inhibition of PDE4 catalytic activity (PDE4 [8]) | dispersal of PDE4A1 spots (in words) (HSPDE4A1-EGFP [5]) | formation of spots, compound alone (in words) (HSPDE4A4-EGFP [6]) | further results |
| --- | --- | --- | --- | --- | --- | --- | --- | --- | --- | --- | --- | --- | --- | --- | --- |
| CCCCn1c(=O)c2c(ncn2CC(C)=O)n(CCCC)c1=O [Denbufylline] | 49 | 0.0041 µM | no | indistinguishable from those induced by Rolipram treatment | no | yes | yes | anti- | yes | 0.2 µM | 6.00 | yes |  |  | cells with spots (HSPDE4A4-EGFP [6]): 40%; cells with spots (HSPDE4A4-EGFP [6]; listed as denbufylline): approximately 40% |
| O=S(=O)(NCCNC/C=C/c1ccc(Br)cc1)c1cccc2cnccc12 [H-89] |  |  |  |  |  |  |  |  |  |  |  |  |  |  | effect on the dispersal of spots induced by IBMX plus forskolin (HSPDE4A4-EGFP [3]; FLIPR, 2 micromolar H-89 pre-treatment 20 minutes): significant effect on the dispersal of spots; pIC50 [9]: ~7.30 |
| COc1ccc(C(=O)Nc2c(Cl)cncc2Cl)cc1OC1CCCC1 [RP73401] |  | 0.0004 µM | yes | induces no redistribution | yes | no | no | anti- | no | 0.0012 µM |  | yes | does not disperse spots; also recorded: no significant spot dispersal | produces no spots | time for dispersal of spots (HSPDE4A4-EGFP [3]; spots formed by 2 μM Rolipram over 16 hours, 1 μM RP73401): ≤ 10 min; prevention of the redistribution caused by Rolipram (PDE4A probes; in presence of Rolipram): prevent the redistribution; cells with spots (HSPDE4A4-EGFP [10]; 2 μM Rolipram plus 0.001 μM RP73401, 7.5 hours): less than 5%; spot formation (in words) (HSPDE4A4-EGFP [10]; 2 μM Rolipram plus 0.003 μM RP73401, 7.5 hours): unable to elicit the production of any spots; also recorded: no spots formed in any of the cells; pIC50 (PDE4 [11]): 9.52 |
| COc1cc2c(cc1OC)-c1cc(=Nc3c(C)cc(C)cc3C)n(C)c(=O)n1CC2 [Trequinsin, 9,10-dimethoxy-2-mesitylimino-3-methyl-3,4,6,7-tetrahydro-2H-pyrimido[6,1-a]isoquinolin-4-one] | 023 | 1.7 µM |  | no redistribution |  |  |  |  |  | 0.4 µM | 6.00 |  | no significant spot dispersal | Neither compound causes formation of spots | (IC50 PDE3)/(IC50 PDE4) (PDE3 [12]): 0.00041 |
| CN(C(=O)CCCOc1ccc2[nH]c(=O)ccc2c1)C1CCCCC1 [cilostamide] |  |  |  | no redistribution |  |  |  |  |  |  |  |  |  | do not produce spots | pIC50 (PDE3 [13]): 7.15; effect on spot formation by 2 μM Rolipram (in words) (HSPDE4A4-EGFP [10]; 500 μM theophylline, 100 μM caffeine, 10 μM milrinone, 0.5 μM cilostamide, 100 μM zaprinast): form the same number and type of bright spots |
| C[C@H](CCC(=O)O)C[C@H](C)C[C@H](C)C(=O)/C=C(\O)[C@H](C)C[C@H](C)C/C=C/[C@@H](C)[C@@H](O)[C@@H](C)[C@@H](O)C[C@@H]1CC[C@@](C)([C@H]2CC[C@@](C)([C@@H](C)O)O2)O1 [ionomycin] |  |  |  |  |  |  |  |  |  |  |  |  |  |  | time to formation of small spots in the cytoplasm (HSPDE4A4-EGFP [14]): ≤ 1 min; cells with bright spots remaining (HSPDE4A4-EGFP [3]; 2 μM ionomycin 50-55 minutes with 2 μM Rolipram, non-clonal, 10% FBS (control 70%)): 20-40% and 20 to 40%; dispersal of Rolipram-induced spots (in words) (HSPDE4A4-EGFP [3]; FBS-replete cells, 200 nM PMA, 2 μM ionomycin, or 50 μM forskolin plus 1 mM IBMX): slowly and in an incomplete manner |
